Assay results as given in patent US10040791B2, “Isoxazole derivative as mutant isocitrate dehydrogenase 1 inhibitor” (Daiichi Sankyo Company, Limited, priority 2014, dated 2018).

How the values were obtained:
IDH1R132C = IDH1R132C (Homo sapiens (Human), UniProt O75874, R132C); experiment: Inhibitory activity against IDH1R132C enzyme (NADPH detection, WST-8); format: biochemical; details: 10 nM, residual NADPH detected with WST-8, read-out: Test Example 1 IDH1 R132C IC50
[1] = system: HT-1080 cells expressing IDH1R132C; experiment: 2-HG production inhibitory activity using HT1080 cell; format: cell-based, human; details: Homo sapiens, HT-1080; 2-HG production, HT1080 cells; read-out: Test Example 3 IC50
Description: Then, 100 μL of growth medium B was added to each well, further 25 μL of a solution of each compound diluted to a predetermined concentration with growth medium B was added to each well, and the cells were incubated at 37° C. for 2 days under 5% CO2. […] Then, 150 μL of ultrapure water was further added to each well, and the mixture was stirred by pipetting and stored at −20° C.
The preserved solutions were thawed at room temperature.

[2] = system: HT1080 xenografted mice (IDH1R132C); experiment: 2-HG production inhibitory activity using HT1080 xenografted mice; format: in vivo, mouse; details: 2-HG production, HT1080 xenografted mice; for response vs control in vivo at 75 mg/kg: Mus musculus, HT-1080, po, 6 h, read-out: Test Example 5 Ratio (%)
Description: HT1080 xenografted mice having successfully engrafted tumors were given by oral gavage each compound at 75 mg/kg a total of three times twice a day. The compound was suspended in a vehicle solution at 7.5 mg/mL using a homogenizer. Then, the suspension was stored at −20° C., thawed immediately before the administration, and given to mice. A negative control group for the test was given a vehicle by oral gavage. The body weights of the mice were measured using an automatic balance for small animals. The dosing solution was administered at a dose of 10 mL/kg body weight.
6 hours after the final administration, each mouse was euthanized with carbon dioxide. A portion of a tumor was collected, and its weight was measured using an electronic balance. Then, the tumor was frozen on dry ice. To the frozen tumor, methanol was added in an amount of 14 times the tumor weight. The resulting tumor was homogenized with Beads shocker (Yasui Kikai Corp.) and then incubated for 15 minutes in a freezer at −20° C. After centrifugation at 15000 rpm at 4° C. for 15 minutes using a high-speed refrigerated microcentrifuge, 250 μL of methanol and 400 μL of ultrapure water were added to 150 μL of the obtained supernatant. The prepared samples were subjected to 2-HG measurement.

Chain of IDH1R132C (O75874 whole entry R132C): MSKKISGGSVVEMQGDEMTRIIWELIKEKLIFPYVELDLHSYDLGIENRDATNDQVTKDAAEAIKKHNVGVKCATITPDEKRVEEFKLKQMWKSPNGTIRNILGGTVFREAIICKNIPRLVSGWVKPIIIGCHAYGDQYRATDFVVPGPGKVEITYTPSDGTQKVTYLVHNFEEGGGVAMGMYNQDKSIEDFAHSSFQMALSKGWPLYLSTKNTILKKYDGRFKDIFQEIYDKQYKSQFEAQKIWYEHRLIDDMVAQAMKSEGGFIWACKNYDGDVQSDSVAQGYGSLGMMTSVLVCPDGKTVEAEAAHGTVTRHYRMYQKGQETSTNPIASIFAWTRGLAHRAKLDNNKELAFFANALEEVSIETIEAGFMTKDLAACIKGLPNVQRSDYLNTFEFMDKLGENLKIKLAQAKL

SMILES | IC50 (IDH1R132C) [nM] | IC50 [1] [nM] | response vs control in vivo at 75 mg/kg [2] [%] | Test Example 5 Ratio (%) [2] [%]
C=CC(=O)N1CCC(c2onc(-c3c(Cl)cc(Cl)cc3Cl)c2C(=O)n2cc3c4c(cccc42)/C(=C/C(=O)O)CC3)CC1 [Example 94, (2E)-[1-{[5-(1-Acryloylpiperidin-4-yl)-3-(2,4,6-trichlorophenyl)-1,2-oxazol-4-yl]carbonyl}-3,4-dihydrobenzo[cd]indol-5(1H)-ylidene]ethanoic acid] | 159 | 3 | 1 | 
Cc1cc(Cl)cc(Cl)c1-c1noc(C(C)(C)F)c1C(=O)n1cc(C)c2c(/C=C/C(=O)O)cccc21 [Example 59, (2E)-3-(1-{[3-(2,4-Dichloro-6-methylphenyl)-5-(2-fluoropropan-2-yl)-1,2-oxazol-4-yl]carbonyl}-3-methyl-1H-indol-4-yl)prop-2-enoic acid] | 117 | 56 | 10 | 
C=CC(=O)N1CCC(c2onc(-c3c(Cl)cc(Cl)cc3Cl)c2C(=O)n2ccc3c(/C=C(\C)C(=O)O)cccc32)CC1 [Example 116] | 471 | 42 | 57 | 
Cc1cn(C(=O)c2c(-c3cc(F)c(Cl)cc3Cl)noc2C(C)(C)F)c2cccc(/C=C/C(=O)O)c12 [Example 63, (2E)-3-(1-{[3-(2,4-Dichloro-5-fluorophenyl)-5-(2-fluoropropan-2-yl)-1,2-oxazol-4-yl]carbonyl}-3-methyl-1H-indol-4-yl)prop-2-enoic acid] | 145 | 193 | 31 | 
CC(C)(F)c1onc(-c2ccc(Cl)cc2Cl)c1C(=O)n1cc2c3c(cccc31)/C(=C/C(=O)O)CC2 [Example 69, (2E)-[1-{[3-(2,4-Dichlorophenyl)-5-(2-fluoropropan-2-yl)-1,2-oxazol-4-yl]carbonyl}-3,4-dihydrobenzo[cd]indol-5(1H)-ylidene]ethanoic acid] | 168 | 197 | 20 | 
CC1(c2onc(-c3c(Cl)cc(Cl)cc3Cl)c2C(=O)n2cc3c4c(cccc42)/C(=C/C(=O)O)CC3)COC1 [Example 8, (2E)-[1-{[5-(3-Methyloxetan-3-yl)-3-(2,4,6-trichlorophenyl)-1,2-oxazol-4-yl]carbonyl}-3,4-dihydrobenzo[cd]indol-5(1H)-ylidene]ethanoic acid] | 55 | 22 | 67 | 
CC(C)(F)c1onc(-c2c(F)cc(Cl)cc2Cl)c1C(=O)n1cc2c3c(cccc31)/C(=C/C(=O)O)CC2 [Example 16, (2E)-[1-{[3-(2,4-Dichloro-6-fluorophenyl)-5-(2-fluoropropan-2-yl)-1,2-oxazol-4-yl]carbonyl}-3,4-dihydrobenzo[cd]indol-5(1H)-ylidene]ethanoic acid] | 107 | 89 | 32 | 
C=CC(=O)N1CCC(c2onc(-c3c(C)cc(Cl)cc3C)c2C(=O)n2cc(C)c3c(/C=C/C(=O)O)cccc32)CC1 [Example 122] | 94 | 6 | 29 | 
CC(C)(F)c1onc(-c2c(Cl)cc(Cl)cc2Cl)c1C(=O)n1ccc2c3c(ccc21)CCC(C(=O)O)C3 (stereo not drawn) [Example 18, 3-{[5-(2-Fluoropropan-2-yl)-3-(2,4,6-trichlorophenyl)-1,2-oxazol-4-yl]carbonyl}-6,7,8,9-tetrahydro-3H-Benzo[e]indole-8-carboxylic acid] | 162 | 136 | 56 | 
Cc1cn(C(=O)c2c(-c3ccc(Cl)cc3Cl)noc2C(C)(C)F)c2cccc(/C=C/C(=O)O)c12 [Example 62, (2E)-3-(1-{[3-(2,4-Dichlorophenyl)-5-(2-fluoropropan-2-yl)-1,2-oxazol-4-yl]carbonyl}-3-methyl-1H-indol-4-yl)prop-2-enoic acid] | 155 | 69 |  | 10
C=CC(=O)N1CCC(c2onc(-c3ccc(Cl)c(F)c3Cl)c2C(=O)n2cc3c4c(cccc42)/C(=C/C(=O)O)CC3)CC1 [Example 130, (2E)-[1-{[5-(1-Acryloylpiperidin-4-yl)-3-(2,4-dichloro-3-fluorophenyl)-1,2-oxazol-4-yl]carbonyl}-3,4-dihydrobenzo[cd]indol-5(1H)-ylidene]ethanoic acid] | 143 | 14 | 5 | 
Cc1cn(C(=O)c2c(-c3c(F)cc(Cl)cc3F)noc2C(C)(C)F)c2cccc(/C=C/C(=O)O)c12 [Example 54, (2E)-3-(1-{[3-(4-Chloro-2,6-difluorophenyl)-5-(2-fluoropropan-2-yl)-1,2-oxazol-4-yl]carbonyl}-3-methyl-1H-indol-4-yl)prop-2-enoic acid] | 109 | 90 |  | 16
C/C=C/C(=O)N1CCC(c2onc(-c3c(Cl)cc(Cl)cc3Cl)c2C(=O)n2cc(C)c3c(/C=C/C(=O)O)cccc32)CC1 [Example 119] | 190 | 30 | 12 | 
CC(C)(F)c1onc(-c2c(F)cc(Cl)cc2Cl)c1C(=O)n1ccc2c(/C=C/C(=O)O)cccc21 [Example 46, (2E)-3-(1-{[3-(2,4-Dichloro-6-fluorophenyl)-5-(2-fluoropropan-2-yl)-1,2-oxazol-4-yl]carbonyl}-1H-indol-4-yl)prop-2-enoic acid] | 197 | 459 | 69 | 
Cc1cn(C(=O)c2c(-c3c(Cl)cc(Cl)cc3Cl)noc2C(C)(C)F)c2c(F)ccc(/C=C/C(=O)O)c12 [Example 50, (2E)-3-(7-Fluoro-1-{[5-(2-fluoropropan-2-yl)-3-(2,4,6-trichlorophenyl)-1,2-oxazol-4-yl]carbonyl}-3-methyl-1H-indol-4-yl)prop-2-enoic acid] | 104 | 173 | 84 | 
Cc1cn(C(=O)c2c(-c3c(Cl)cc(Cl)cc3Cl)noc2C2(C)CCC2)c2cccc(/C=C/C(=O)O)c12 [Example 10, (2E)-3-(3-Methyl-1-{[5-(1-methylcyclobutyl)-3-(2,4,6-trichlorophenyl)-1,2-oxazol-4-yl]carbonyl}-1H-indol-4-yl)prop-2-enoic acid] | 179 | 50 | 27 | 
CC(C)(C)c1onc(-c2c(F)cc(Cl)cc2Cl)c1C(=O)n1ccc2c(/C=C/C(=O)O)cccc21 [Example 35, (2E)-3-(1-{[5-(tert-Butyl)-3-(2,4-dichloro-6-fluorophenyl)-1,2-oxazol-4-yl]carbonyl}-1H-indol-4-yl)prop-2-enoic acid] | 161 | 244 | 64 | 
C=CC(=O)N1CCC(c2onc(-c3c(C)cc(C)cc3C)c2C(=O)n2cc(C)c3c(/C=C/C(=O)O)cccc32)CC1 [Example 114] | 81 | 3 | 12 | 
C=CC(=O)N1CCC(OC)(c2onc(-c3c(Cl)cc(Cl)cc3Cl)c2C(=O)n2cc(C)c3c(/C=C/C(=O)O)cccc32)CC1 [Example 117] | 117 | 2 | 10 | 
C=CC(=O)N1CCN(c2onc(-c3c(Cl)cc(Cl)cc3Cl)c2C(=O)n2ccc3c(/C=C/C(=O)O)cccc32)C[C@H]1C [Example 148, (2E)-3-[1-({5-[(3R)-4-Acryloyl-3-methylpiperazin-1-yl]3-(2,4,6-trichlorophenyl)-1,2-oxazol-4-yl}carbonyl)-1H-indol-4-yl]prop-2-enoic acid] | 225 | 114 | 50 | 
C=CC(=O)N1CCC(c2onc(-c3c(C)cc(C)cc3C)c2C(=O)n2ccc3c(/C=C/C(=O)O)cccc32)CC1 [Example 109] | 243 | 45 | 23 | 
COC1(c2onc(-c3c(Cl)cc(Cl)cc3Cl)c2C(=O)n2cc3c4c(cccc42)/C(=C/C(=O)O)CC3)CCC1 [Example 12, (2E)-[1-{[5-(1-Methoxycyclobutyl)-3-(2,4,6-trichlorophenyl)-1,2-oxazol-4-yl]carbonyl}-3,4-dihydrobenzo[cd]indol-5(1H)-ylidene]ethanoic acid] | 144 | 24 | 7 | 
Cc1cn(C(=O)c2c(-c3c(Cl)cc(Cl)cc3Cl)noc2C(C)(C)C)c2cccc(/C=C/C(=O)O)c12 [Example 33, (2E)-3-(1-{[5-(tert-Butyl)-3-(2,4,6-trichlorophenyl)-1,2-oxazol-4-yl]carbonyl}-3-methyl-1H-indol-4-yl)prop-2-enoic acid] | 193 | 43 | 15 | 
